Laboratory results published in publication PMC8200971, “Design, Synthesis, Biological Evaluation and Silico Prediction of Novel Sinomenine Derivatives” (Molecules, 2021).

Legend:
[1] = test system: A549 (human lung adenocarcinoma cell lines); experiment: CCK8 cytotoxicity assay; type: cell-based; details: Homo sapiens, A549, 60 h; for IC50: read-out: IC50 A549; for inhibition at 2.5 µM / inhibition at 25 µM: read-out: growth inhibition ratio (mean ± SD)
Description: (§1) Cytotoxicity screens were performed to assess the in vitro anticancer activity of the synthesized sinomenine derivatives 6a–6l on the various cancer cell lines MCF-7, Hela, SW480, and A549, as well as on Hek293 as a normal cell line, at doses of 2.5 and 25 μM. The obtained inhibition ratios data were used to construct a heat map (Figure 3, Tables S1 and S2) in order to select compounds that exert cancer cell line-specific cytotoxicity. Then, the IC50 values of the promising compound were determined. Cisplatin was used as a reference standard. The antiproliferative activity was based on the evaluation of the percent viability using the CCK8 assay, which is a rapid and sensitive method for determining the number of viable cells in culture. In the presence of electronic coupling reagents, WST-8 can be reduced by a dehydrogenase in the mitochondria to produce a highly water-soluble orange-yellow formazan product. Its color is proportional to the proliferation of the number of viable cells and is related to cytotoxicity. Using a microplate reader to measure the OD value can indirectly reflect the number of living cells at 450 nm wavelength.
(§2) To understand structure–function relationships, these selected compounds were subjected to subsequent analyses. All six compounds (6a and 6c–6g) were further examined to determine their IC50 concentrations on the previously mentioned cell lines, and their efficacy was compared to the reference drug cisplatin. For this, six compounds and cisplatin were evaluated on Hela, MCF-7, SW480, and A549, and on noncancerous Hek293 cell lines at various concentrations for 60 h. IC50 values were calculated (Table 2).
(§3) The MCF-7 (human breast cancer cell lines), Hela (human cervical cancer cell lines), SW480 (human colon adenocarcinoma cell lines), A549 (human lung adenocarcinoma cell lines) and nontoxic normal cells Hek293 (human embryonic kidney cell lines) cells were used to measure the cytotoxicity of the 6a–6l. They were obtained from the Beijing Normal University (Beijing, China). The test cell lines were cultured in DMEM, IMDM, F12 and DMEM nutrient medium containing 10% heat-inactivated fetal bovine serum, […] and 100 units/mL penicillin in a humified, 5% (v/v) CO2 atmosphere at 37 °C.
(§4) Cell viability was estimated using the CCK8 assay. Tumor cells ([…]) viz. MCF-7, Hela, SW480, A549 and nontoxic normal cells Hek293 were seeded in medium containing Corning® 96-well tissue culture plates at confluences of […], respectively, in Incucyte ZOOM. Fresh medium (100 μL) containing different concentrations of the test sample was added after 12 h of seeding. The microtiter plates were incubated at 37 °C in a humidified incubator with 5% CO2 for 60 h. Triplicates from each concentration were used. Negative control cells were incubated without sample and cisplatin as a positive control. At the end of treatment, the numbers of viable cells were determined by the CCK8 test. In brief, the media was removed from the 96 well plates and replaced with 100 μL of fresh culture medium with 10% CCK8 solution added to each well including the untreated controls. The 96 well plates were then incubated at 37 °C and 5% CO2 for 1–4 h. Then, the absorbance was measured at 450 nm using a BMG LABTECH®-POLAR star Omega microplate reader (Ortenberg, Germany) to determine the number of viable cells, and the percentage of viability was calculated as ((ODt- ODb/ODc- ODb)) × 100%, where ODt is the mean optical density of wells treated with the tested sample, ODc is the mean optical density of wells treated with DMSO and ODb is the mean optical density of PBS wells without cells. The relation between surviving cells and drug concentrations were plotted to get the survival curve of each tumor cell line after treatment with the specified compound. […]

[2] = test system: Hela (human cervical cancer cell lines); experiment: CCK8 cytotoxicity assay; type: cell-based; details: Homo sapiens, HeLa, 60 h; for IC50: read-out: IC50 Hela; for inhibition at 2.5 µM / inhibition at 25 µM: read-out: growth inhibition ratio (mean ± SD)
Description: as §1, §2, §3, §4

[3] = test system: MCF-7 (human breast cancer cell lines); experiment: CCK8 cytotoxicity assay; type: cell-based; details: Homo sapiens, MCF7, 60 h; for IC50: read-out: IC50 MCF-7; for inhibition at 2.5 µM / inhibition at 25 µM: read-out: growth inhibition ratio (mean ± SD)
Description: as §1, §2, §3, §4

[4] = test system: SW480 (human colon adenocarcinoma cell lines); experiment: CCK8 cytotoxicity assay; type: cell-based; details: Homo sapiens, SW480, 60 h; for IC50: read-out: IC50 SW480; for inhibition at 2.5 µM / inhibition at 25 µM: read-out: growth inhibition ratio (mean ± SD)
Description: as §1, §2, §3, §4

[5] = test system: Hek293 (human embryonic kidney cell lines); experiment: CCK8 cytotoxicity assay, normal cells; type: cell-based; details: Homo sapiens, HEK293, 60 h; for IC50: read-out: IC50 Hek293; for inhibition at 2.5 µM / inhibition at 25 µM: read-out: growth inhibition ratio (mean ± SD)
Description: as §1, §2, §3, §4

Row | Compound | IC50 [1] [µM] | inhibition at 2.5 µM [1] [%] | inhibition at 25 µM [1] [%] | IC50 [2] [µM] | inhibition at 2.5 µM [2] [%] | inhibition at 25 µM [2] [%] | IC50 [3] [µM] | inhibition at 2.5 µM [3] [%] | inhibition at 25 µM [3] [%] | IC50 [4] [µM] | inhibition at 2.5 µM [4] [%] | inhibition at 25 µM [4] [%] | IC50 [5] [µM] | inhibition at 2.5 µM [5] [%] | inhibition at 25 µM [5] [%] | melting point [°C]
1 | COC1=C[C@@H]2[C@@H]3Cc4c(CN5CCCC5)cc(OC)c(OC(=O)Cc5cccc(Cl)c5)c4[C@]2(CCN3C)CC1=O [6e, (4bR,8aS,9S)-3,7-dimethoxy-11-methyl-6-oxo-1-(pyrrolidin-1-ylmethyl)-6,8a,9,10-tetrahydro-5H-9,4b-(epiminoethano)phenanthren-4-yl 2-(3-chlorophenyl)acetate] | 17.9 ± 0.74 | 25.6 ± 1 | 61.06 ± 0.13 | 13.3 ± 0.95 | 3.21 ± 2.37 | 80.9 ± 2.05 | 14.9 ± 0.15 | 6.92 ± 2.62 | 77.85 ± 0.45 | > 25 | 29.4 ± 7.71 | 61 ± 7.14 | 16.6 ± 0.64 | 14.4 ± 2.54 | 63.3 ± 11.4 | 68 to 72
2 | COC1=C[C@@H]2[C@@H]3Cc4c(CN5CCCC5)cc(OC)c(OC(=O)Cc5ccccc5C)c4[C@]2(CCN3C)CC1=O [6f, (4bR,8aS,9S)-3,7-dimethoxy-11-methyl-6-oxo-1-(pyrrolidin-1-ylmethyl)-6,8a,9,10-tetrahydro-5H-9,4b-(epiminoethano)phenanthren-4-yl 2-(o-tolyl)acetate] | 25.1 ± 1.72 | 25 ± 1.05 | 57.09 ± 0.06 | > 25 | 7.82 ± 4.1 | 58.7 ± 2.64 | > 25 | 0 | 31.4 ± 3.72 | > 25 | 20.8 ± 5.63 | 55.7 ± 6.94 | 10.1 ± 0.42 | 16.8 ± 2.39 | 64.3 ± 14.6 | 72 to 75
3 | COC1=C[C@@H]2[C@@H]3Cc4c(CN5CCCC5)cc(OC)c(OC(=O)Cc5ccc(Cl)c(Cl)c5)c4[C@]2(CCN3C)CC1=O [6g, (4bR,8aS,9S)-3,7-dimethoxy-11-methyl-6-oxo-1-(pyrrolidin-1-ylmethyl)-6,8a,9,10-tetrahydro-5H-9,4b-(epiminoethano)phenanthren-4-yl 2-(3,4-dichlorophenyl)acetate] | > 25 | 20.3 ± 0.78 | 43.9 ± 1.11 | 11.9 ± 0.6 | 35.3 ± 4.37 | 93.85 ± 0.2 | > 25 | 6.59 ± 4.98 | 34.6 ± 2.06 | > 25 | 11.8 ± 7.5 | 56 ± 5.88 | 4.71 ± 0.48 | 9.72 ± 1.96 | 59.9 ± 16.9 | 160 to 164
4 | COC1=C[C@@H]2[C@@H]3Cc4c(CN5CCCC5)cc(OC)c(OC(=O)Cc5ccccc5)c4[C@]2(CCN3C)CC1=O [6h, (4bR,8aS,9S)-3,7-dimethoxy-11-methyl-6-oxo-1-(pyrrolidin-1-ylmethyl)-6,8a,9,10-tetrahydro-5H-9,4b-(epiminoethano)phenanthren-4-yl 2-phenylacetate] | – | 20.6 ± 0.77 | 52.3 ± 0.76 | – | 11.2 ± 10 | 21.2 ± 4.4 | – | 5.79 ± 10 | 0 | – | 28.2 ± 10.3 | 37.8 ± 9.83 | – | 17.4 ± 1.49 | 46 ± 22.4 | 165 to 168
5 | COC1=C[C@@H]2[C@@H]3Cc4c(CN5CCCC5)cc(OC)c(OC(=O)Cc5ccc(OC)cc5)c4[C@]2(CCN3C)CC1=O [6i, (4bR,8aS,9S)-3,7-dimethoxy-11-methyl-6-oxo-1-(pyrrolidin-1-ylmethyl)-6,8a,9,10-tetrahydro-5H-9,4b-(epiminoethano)phenanthren-4-yl 2-(4-methoxyphenyl)acetate] | – | 23.5 ± 0.76 | 51.77 ± 0.5 | – | 7.79 ± 6.01 | 29.2 ± 5.29 | – | 11.7 ± 5.99 | 0 | – | 28.6 ± 9.02 | 38.9 ± 9.65 | – | 13.3 ± 0.21 | 46.9 ± 16.7 | 76 to 79
6 | COC1=C[C@@H]2[C@@H]3Cc4c(CN5CCCC5)cc(OC)c(OC(=O)Cc5ccc([N+](=O)[O-])cc5)c4[C@]2(CCN3C)CC1=O [6j, (4bR,8aS,9S)-3,7-dimethoxy-11-methyl-6-oxo-1-(pyrrolidin-1-ylmethyl)-6,8a,9,10-tetrahydro-5H-9,4b-(epiminoethano)phenanthren-4-yl 2-(4-nitrophenyl)acetate] | – | 15.4 ± 5.6 | 38.7 ± 8.59 | – | 0 | 3.75 ± 0.91 | – | 3.64 ± 6.3 | 1.97 ± 2.75 | – | 0 | 0.92 ± 1.34 | – | 20.5 ± 6.76 | 56.1 ± 7.28 | 82 to 85
7 | COC1=C[C@@H]2[C@@H]3Cc4c(CN5CCCC5)cc(OC)c(OC(=O)Cc5ccccc5OC)c4[C@]2(CCN3C)CC1=O [6k, (4bR,8aS,9S)-3,7-dimethoxy-11-methyl-6-oxo-1-(pyrrolidin-1-ylmethyl)-6,8a,9,10-tetrahydro-5H-9,4b-(epiminoethano)phenanthren-4-yl 2-(2-methoxyphenyl)acetate] | – | 16.6 ± 2.3 | 51.9 ± 6.36 | – | 0 | 44.1 ± 0.92 | – | 0.75 ± 1.29 | 24.4 ± 11 | – | 3.72 ± 1.8 | 36.9 ± 0.52 | – | 13.9 ± 4.06 | 63.5 ± 10.2 | 180 to 182
8 | COC1=C[C@@H]2[C@@H]3Cc4c(CN5CCCC5)cc(OC)c(OC(=O)Cc5ccccc5F)c4[C@]2(CCN3C)CC1=O [6l, (4bR,8aS,9S)-3,7-dimethoxy-11-methyl-6-oxo-1-(pyrrolidin-1-ylmethyl)-6,8a,9,10-tetrahydro-5H-9,4b-(epiminoethano)phenanthren-4-yl 2-(2-fluorophenyl)acetate] | – | 13.2 ± 4.88 | 47.1 ± 5.4 | – | 0.61 ± 0.6 | 29 ± 1.88 | – | 4.61 ± 4.79 | 9.52 ± 8.26 | – | 3.91 ± 0.85 | 16.5 ± 0.53 | – | 12.7 ± 2.89 | 68.8 ± 13.3 | 178 to 180
